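Compound exposure: 48 hours, 5 concentrations, 96-well plates. Here, GI50 denotes the concentration required for 50% inhibition of growth. TGI is the concentration that stops growth completely.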
Experiments:
Assay in all cases: growth of human tumour cells (NCI), 48 h
RPMI-8226 leukemia = system: RPMI-8226 leukemia
OVCAR-8 ovarian = system: OVCAR-8 ovarian
OVCAR-4 ovarian = system: OVCAR-4 ovarian
EKVX NSCLC = system: EKVX NSCLC
DU-145 prostate = system: DU-145 prostate
TK-10 renal = system: TK-10 renal
SF-295 CNS = system: SF-295 CNS
OVCAR-5 ovarian = system: OVCAR-5 ovarian
T-47D breast = system: T-47D breast
SN12C renal = system: SN12C renal
A498 renal = system: A498 renal
U251 CNS = system: U251 CNS
MDA-MB-231 breast = system: MDA-MB-231 breast
HT29 colon = system: HT29 colon
SW-620 colon = system: SW-620 colon
HCT-15 colon = system: HCT-15 colon
A549 NSCLC = system: A549 NSCLC
NCI-H522 lung = system: NCI-H522 lung
CAKI-1 renal = system: CAKI-1 renal
MOLT-4 leukemia = system: MOLT-4 leukemia
OVCAR-3 ovarian = system: OVCAR-3 ovarian
SNB-19 CNS = system: SNB-19 CNS
HOP-62 NSCLC = system: HOP-62 NSCLC
SF-268 CNS = system: SF-268 CNS
KM12 colon = system: KM12 colon
UACC-62 melanoma = system: UACC-62 melanoma
NCI-H226 lung = system: NCI-H226 lung
ACHN renal = system: ACHN renal
RXF 393 renal = system: RXF 393 renal
HOP-92 NSCLC = system: HOP-92 NSCLC
SK-MEL-28 melanoma = system: SK-MEL-28 melanoma
HS 578T breast = system: HS 578T breast
HCT-116 colon = system: HCT-116 colon
SK-MEL-5 melanoma = system: SK-MEL-5 melanoma
NCI/ADR-RES ovarian = system: NCI/ADR-RES ovarian
PC-3 prostate = system: PC-3 prostate
MALME-3M melanoma = system: MALME-3M melanoma
M14 melanoma = system: M14 melanoma
SK-OV-3 ovarian = system: SK-OV-3 ovarian
LOX IMVI melanoma = system: LOX IMVI melanoma
BT-549 breast = system: BT-549 breast
IGROV1 ovarian = system: IGROV1 ovarian
SNB-75 CNS = system: SNB-75 CNS
SK-MEL-2 melanoma = system: SK-MEL-2 melanoma
NCI-H23 lung = system: NCI-H23 lung
786-0 renal = system: 786-0 renal
SF-539 CNS = system: SF-539 CNS
UO-31 renal = system: UO-31 renal
HL-60(TB) leukemia = system: HL-60(TB) leukemia
HCC-2998 colon = system: HCC-2998 colon
CCRF-CEM leukemia = system: CCRF-CEM leukemia
MDA-MB-435 = system: MDA-MB-435
UACC-257 melanoma = system: UACC-257 melanoma
COLO 205 colon = system: COLO 205 colon
NCI-H460 lung = system: NCI-H460 lung

C=C1C(=O)O[C@H]2[C@H]1CC/C(CNC(=O)c1cccc3ccccc13)=C\CC[C@@]1(C)O[C@@H]21 showed a GI50 (RPMI-8226 leukemia) of 2.02 µM, a TGI (RPMI-8226 leukemia) of 6.4 µM and a GI50 (OVCAR-8 ovarian) of 3.29 µM. For the same molecule, the TGI (OVCAR-8 ovarian) was 12 µM, the GI50 (OVCAR-4 ovarian) was 2.34 µM and the TGI (OVCAR-4 ovarian) was 8 µM. For the same molecule, the GI50 (EKVX NSCLC) was 2.2 µM, the TGI (EKVX NSCLC) was 8.79 µM and the GI50 (DU-145 prostate) was 1.02 µM. It also gave a TGI (DU-145 prostate) of 2.47 µM, a GI50 (TK-10 renal) of 1.98 µM and a TGI (TK-10 renal) of 4.46 µM. For the same molecule, the GI50 (SF-295 CNS) was 6.15 µM, the TGI (SF-295 CNS) was 21.6 µM and the GI50 (OVCAR-5 ovarian) was 3.6 µM. It also gave a TGI (OVCAR-5 ovarian) of 14 µM, a GI50 (T-47D breast) of 2.55 µM and a TGI (T-47D breast) of 9.08 µM. For the same molecule, the GI50 (SN12C renal) was 1.96 µM, the TGI (SN12C renal) was 5.91 µM and the GI50 (A498 renal) was 5.93 µM. The TGI (A498 renal) was 19.2 µM, the GI50 (U251 CNS) was 5.2 µM and the TGI (U251 CNS) was 18.2 µM. For the same molecule, the GI50 (MDA-MB-231 breast) was 1.59 µM, the TGI (MDA-MB-231 breast) was 4 µM and the GI50 (HT29 colon) was 1.84 µM. It also gave a TGI (HT29 colon) of 4.75 µM, a GI50 (SW-620 colon) of 1.12 µM and a TGI (SW-620 colon) of 3.04 µM. For the same molecule, the GI50 (HCT-15 colon) was 1.31 µM, the TGI (HCT-15 colon) was 3.14 µM and the GI50 (A549 NSCLC) was 14.1 µM. For the same molecule, the TGI (A549 NSCLC) was 35.3 µM, the GI50 (NCI-H522 lung) was 1.36 µM and the TGI (NCI-H522 lung) was 2.95 µM. The GI50 (CAKI-1 renal) was 1.19 µM, the TGI (CAKI-1 renal) was 4.74 µM and the GI50 (MOLT-4 leukemia) was 1.7 µM. It also gave a TGI (MOLT-4 leukemia) of 5.62 µM, a GI50 (OVCAR-3 ovarian) of 1.31 µM and a TGI (OVCAR-3 ovarian) of 2.77 µM. The GI50 (SNB-19 CNS) was 5.96 µM, the TGI (SNB-19 CNS) was 20 µM and the GI50 (HOP-62 NSCLC) was 14.1 µM. It also gave a TGI (HOP-62 NSCLC) of 30.7 µM, a GI50 (SF-268 CNS) of 5.22 µM and a TGI (SF-268 CNS) of 20 µM. For the same molecule, the GI50 (KM12 colon) was 5.25 µM, the TGI (KM12 colon) was 21 µM and the GI50 (UACC-62 melanoma) was 1.64 µM. It also gave a TGI (UACC-62 melanoma) of 3.9 µM, a GI50 (NCI-H226 lung) of 29.1 µM and a TGI (NCI-H226 lung) of 77.6 µM. For the same molecule, the GI50 (ACHN renal) was 1.52 µM, the TGI (ACHN renal) was 6.3 µM and the GI50 (RXF 393 renal) was 1.18 µM. For the same molecule, the TGI (RXF 393 renal) was 2.6 µM, the GI50 (HOP-92 NSCLC) was 1.83 µM and the TGI (HOP-92 NSCLC) was 4.44 µM. It also gave a GI50 (SK-MEL-28 melanoma) of 2.78 µM, a TGI (SK-MEL-28 melanoma) of 10.7 µM and a GI50 (HS 578T breast) of 6.22 µM. It also gave a TGI (HS 578T breast) of 44.4 µM, a GI50 (HCT-116 colon) of 1.03 µM and a TGI (HCT-116 colon) of 2.32 µM. For the same molecule, the GI50 (SK-MEL-5 melanoma) was 3 µM, the TGI (SK-MEL-5 melanoma) was 11.5 µM and the GI50 (NCI/ADR-RES ovarian) was 4.52 µM. It also gave a TGI (NCI/ADR-RES ovarian) of 46.9 µM, a GI50 (PC-3 prostate) of 1.79 µM and a TGI (PC-3 prostate) of 4 µM. For the same molecule, the GI50 (MALME-3M melanoma) was 1.41 µM, the TGI (MALME-3M melanoma) was 3.23 µM and the GI50 (M14 melanoma) was 1.57 µM. For the same molecule, the TGI (M14 melanoma) was 3.76 µM, the GI50 (SK-OV-3 ovarian) was 17.1 µM and the TGI (SK-OV-3 ovarian) was 33.1 µM. For the same molecule, the GI50 (LOX IMVI melanoma) was 1.53 µM, the TGI (LOX IMVI melanoma) was 3.19 µM and the GI50 (BT-549 breast) was 1.58 µM. The TGI (BT-549 breast) was 3.87 µM, the GI50 (IGROV1 ovarian) was 1.33 µM and the TGI (IGROV1 ovarian) was 3.86 µM. It also gave a GI50 (SNB-75 CNS) of 11.9 µM, a TGI (SNB-75 CNS) of 27.1 µM and a GI50 (SK-MEL-2 melanoma) of 6.51 µM. For the same molecule, the TGI (SK-MEL-2 melanoma) was 24.2 µM, the GI50 (NCI-H23 lung) was 3.67 µM and the TGI (NCI-H23 lung) was 19.1 µM. The GI50 (786-0 renal) was 1.64 µM, the TGI (786-0 renal) was 3.41 µM and the GI50 (SF-539 CNS) was 1.85 µM. For the same molecule, the TGI (SF-539 CNS) was 5.11 µM, the GI50 (UO-31 renal) was 1.44 µM and the TGI (UO-31 renal) was 2.94 µM. The GI50 (HL-60(TB) leukemia) was 1.34 µM, the TGI (HL-60(TB) leukemia) was 4.38 µM and the GI50 (HCC-2998 colon) was 2.43 µM. It also gave a TGI (HCC-2998 colon) of 5.2 µM, a GI50 (CCRF-CEM leukemia) of 0.424 µM and a TGI (CCRF-CEM leukemia) of 6.03 µM. It also gave a GI50 (MDA-MB-435) of 1.99 µM, a TGI (MDA-MB-435) of 6.56 µM and a GI50 (UACC-257 melanoma) of 1.59 µM. It also gave a TGI (UACC-257 melanoma) of 3.61 µM, a GI50 (COLO 205 colon) of 1.75 µM and a TGI (COLO 205 colon) of 3.53 µM. It also gave a GI50 (NCI-H460 lung) of 7.23 µM and a TGI (NCI-H460 lung) of 25.2 µM.
